In US20190185417A1, “NOVEL ANTIBIOTICS” (priority 2016, published 2019):

Columns and labels:
Format in all cases: cell-based
[1] = tested on: Acinetobacter baumannii (ATCC 17978); assay: MIC by broth microdilution; settings: Table 2, Example 2
Description: (§1) The antibacterial potency of the test article(s) was measured using the in vitro broth microdilution assay under assay conditions described by the Clinical and Laboratory Standards Institute. […] The test substance was dissolved in 100% DMSO, suspended completely by sonication or vortexing, diluted by 2-fold serial titrations in the same vehicle, for a total of 11 test concentrations. A 4 μL aliquot of each dilution was added to 196 μL of broth medium seeded with the organism suspension in wells of a 96 well plate (bacterial count: 2−8×10^5 colony forming units/mL final). The final volume was 200 μL in each well and the final DMSO concentration was 2 percent. Following incubation for 1 day at 36° C., the test plates were visually examined and wells were scored for growth or complete growth inhibition to define the minimum inhibitory concentration. Each test substance was evaluated in duplicate and the results were reported as the duplicate test values. Vehicle-control and an active reference agent were used as blank and positive controls, respectively. Microorganisms tested were Acinetobacter baumannii (ATCC 17978), Enterococcus faecalis (ATCC 29212), Enterococcus faecium VanA (ATCC 700221), Escherichia coli (ATCC 25922), Escherichia coli efflux defective DEL-tolC (JW5503), Heamophilus influenzae (ATCC 49247), Klebsiella pneumoniae (ATCC 43816), Pseudomonas aeruginosa (ATCC 27853), Pseudomonas aeruginosa MDR (NTUH-974), Staphylococcus aureus (ATCC 29213), Staphylococcus aureus MRSA (ATCC 33591) and Streptococcous pneumoniae (ATCC 46919). H. influenzae was grown in Haemophilus Test Medium and S. pneumoniae was grown in cation adjusted Muller-Hinton Broth II with 5% lysed horse blood. All other microorganisms were grown in cation adjusted Muller-Hinton Broth II.
(§2) The antibacterial potency of the test article(s) was measured using the in vitro broth microdilution assay under assay conditions described by the Clinical and Laboratory Standards Institute. […] The test substance was dissolved in 100% DMSO (unless stated below), suspended completely by sonication or vortexing, diluted by 2-fold serial titrations in the same vehicle, for a total of 11 test concentrations. A 4 μL aliquot of each dilution was added to 196 μL of broth medium seeded with the organism suspension in wells of a 96 well plate (bacterial count: 2−8×10^5 colony forming units/mL final). The final volume was 200 μL in each well and the final DMSO concentration was 2 percent. Following incubation, the test plates were visually examined and wells were scored for growth or complete growth inhibition to define the minimum inhibitory concentration. Each test substance was evaluated in duplicate and the results below are the duplicate test values. Vehicle-control and an active reference agent were used as blank and positive controls, respectively.

[2] = tested on: Pseudomonas aeruginosa, MDR (NTUH-974); assay: MIC by broth microdilution; settings: Table 2, Example 2
Description: as §1, §2

[3] = tested on: Klebsiella pneumoniae (ATCC 43816); assay: MIC by broth microdilution; settings: Table 2, Example 2
Description: as §1, §2

[4] = tested on: Pseudomonas aeruginosa (ATCC 27853); assay: MIC by broth microdilution; settings: Table 2, Example 2
Description: as §1, §2

[5] = tested on: Escherichia coli (ATCC 25922); assay: MIC by broth microdilution; settings: Table 2, Example 2
Description: as §1, §2

[6] = tested on: Escherichia coli, efflux defective DEL-tolC (JW5503); assay: MIC by broth microdilution; settings: Table 2, Example 2
Description: as §1, §2

[7] = tested on: Haemophilus influenzae (ATCC 49247); assay: MIC by broth microdilution; settings: Table 2, Example 2
Description: as §2

Gram-negative bacteria = assay: MIC by broth microdilution, overall statement in words; settings: Example 2, statement in words
Description: as §1, §2

Structure (SMILES) | MIC [1] | MIC [2] | MIC [3] | MIC [4] | MIC [5] | MIC [6] | MIC [7] | effectiveness against the bacteria of Table 2 (Gram-negative bacteria)
O=[N+]([O-])c1ccc(CCc2cc(CCc3ccc([N+](=O)[O-])cc3)cc(CCc3ccc([N+](=O)[O-])cc3)c2)cc1 [Compound 8 (TSB036)] | >32.0 µg/mL | >32.0 µg/mL | >32.0 µg/mL | >32.0 µg/mL | >32.0 µg/mL | >32.0 µg/mL | >32.0 µg/mL | –
CC(=O)ONc1ccc(CCc2cc(CCc3ccc(NOC(C)=O)cc3)cc(CCc3ccc(NOC(C)=O)cc3)c2)cc1 [Compound 9 (TSB016)] | >32.0 µg/mL | >32.0 µg/mL | >32.0 µg/mL | >32.0 µg/mL | >32.0 µg/mL | >32.0 µg/mL | >32.0 µg/mL | –
CN(C)c1ccc(/C=C/c2cc(/C=C/c3ccc(N(C)C)cc3)cc(/C=C/c3ccc(N(C)C)cc3)c2)cc1 [Compound 10] | >128 µg/mL | >128 µg/mL | >128 µg/mL | >128 µg/mL | >128 µg/mL | >128 µg/mL | >128 µg/mL | –
CN(C)c1ccc(CCc2cc(CCc3ccc(N(C)C)cc3)cc(CCc3ccc(N(C)C)cc3)c2)cc1 [Compound 11 (TSB010)] | >32.0 µg/mL | >32.0 µg/mL | >32.0 µg/mL | >32.0 µg/mL | >32.0 µg/mL | >32.0 µg/mL | >32.0 µg/mL | –
CN(C)Cc1ccc(/C=C/c2cc(/C=C/c3ccc(CC(N)=O)cc3)cc(/C=C/c3ccc(CC(=O)O)cc3)c2)cc1 [Compound 14] | >128 µg/mL | >128 µg/mL | >128 µg/mL | >128 µg/mL | >128 µg/mL | >128 µg/mL | >128 µg/mL | ineffective
CN(C)Cc1ccc(/C=C/c2cc(/C=C/c3ccc(CC(N)=O)cc3)cc(/C=C/c3ccc(CC(N)=O)cc3)c2)cc1 [Compound 15] | >128 µg/mL | >128 µg/mL | >128 µg/mL | >128 µg/mL | >128 µg/mL | >128 µg/mL | >128 µg/mL | ineffective
CN(C)Cc1ccc(/C=C/c2cc(/C=C/c3ccc(CC(=O)O)cc3)cc(/C=C/c3ccc(CC(=O)O)cc3)c2)cc1 [Compound 16] | >128 µg/mL | >128 µg/mL | >128 µg/mL | >128 µg/mL | >128 µg/mL | >128 µg/mL | >128 µg/mL | ineffective
NC(=O)Cc1ccc(/C=C/c2cc(/C=C/c3ccc(CC(N)=O)cc3)cc(/C=C/c3ccc(CC(N)=O)cc3)c2)cc1 [Compound 17] | >128 µg/mL | >128 µg/mL | >128 µg/mL | >128 µg/mL | >128 µg/mL | >128 µg/mL | >128 µg/mL | –
